Source: article PMC7821884, “BRAF inhibition protects against hearing loss in mice” (Science Advances, 2020)

Key:
[1] = test system: SK-N-AS; assay: Tumor Cell Titer-Glo viability assay, SK-N-AS; format: cell-based, human; conditions: SKN-AS, + 15 μM cisplatin, 48 hours
Description: (§1) In clinical settings, cisplatin is used to treat several tumor types, including neuroblastoma and lung carcinoma. […] Medium-alone–, cisplatin-alone–, and dabrafenib-alone–treated cells were used as controls, and viability was reported as percent survival compared to medium alone (Fig. 4E).
(§2) Three human neuroblastoma cell lines IMR-32, SH-SY5Y, and, SK-N-AS, as well as three human lung carcinoma cell lines SHP-77 small cell, H1155 non–small cell, and A549 non–small cell, were used to determine the compounds’ effect on cisplatin’s tumor-killing efficacy ([77]–[83]). Cell lines were purchased from the American Type Culture Collection (ATCC), and cell culture was conducted according to ATCC specifications. Neuroblastoma cell lines IMR-32 and SH-SY5Y are maintained in Dulbecco’s modified Eagle’s medium (DMEM) 1× with glucose (4.5 g/liter), L-glutamine, and sodium pyruvate (10-013-CV, Corning) with 10% fetal bovine serum (FBS) (35011132, Corning) and ampicillin (50 μg/ml; A5354-10ML, Sigma-Aldrich) added. The SK-N-AS cell line is maintained in DMEM 1× with D-glucose (4.5 g/liter), L-glutamine, and 25 mM Hepes (12430-054, Gibco) with 10% FBS, 0.1 mM nonessential amino acids, and ampicillin (50 μg/ml) added. A549 cells are maintained in F-12K medium with L-glutamine (30-2004, ATCC) with 10% FBS and ampicillin (50 μg/ml) added. […]

[2] = test system: P42 FVB mice; assay: Cisplatin-induced hearing loss in adult mice (ABR, OHC counts, pERK); conditions: 75 mg/kg oral gavage, cisplatin 30 mg/kg i.p.
Description: As described in Fig. 4A, baseline auditory brainstem response (ABR) thresholds for P42 FVB mice were established 1 week before experimental procedures. […] Animals were allowed 21 days after cisplatin injection to recover, and final ABR thresholds were recorded.
Ten milligrams of cisplatin (479306, Sigma-Aldrich) powder was dissolved in 10 ml of sterile saline (0.9% NaCl) at 37°C for 40 to 60 min. Cisplatin was administered to FVB mice at 30 mg/kg via intraperitoneal injection. One day before cisplatin injection, mice received 1 ml of saline by subcutaneous injection. To ameliorate dehydration after cisplatin injection, 1 ml of warm saline was injected twice per day for at least 7 days or until body weight started to recover. The cages of cisplatin-treated mice were placed on the heating pad for at least 7 days or until body weight began to recover. Fresh mush food was daily given for at least 7 days.
(§3) Compounds were dissolved in a mixture of 10% DMSO, 5% Tween 80 (P1754, Sigma-Aldrich), 40% PEG-E-300 (91462-1KG, Sigma-Aldrich), and 45% 0.9% saline.
(§4) ABR in mice was measured for left ears as described previously with minor modifications ([13], [34]). In brief, ABR waveforms were recorded in a sound booth (Industrial Acoustic Company) by using subdermal needles positioned in the skull, below the pinna, and at the base of the tail, and the responses were fed into a low-impedance Medusa digital biological amplifier system (RA4L; TDT; 20-dB gain). At each frequency, the stimulus intensity was reduced from 90 to 0 dB in 10-dB steps to determine the threshold decibel SPL when the electrical response was just above the noise floor. ABR waveforms were averaged in response to 500 tone bursts. The recorded signals were filtered by a band-pass filter from 300 Hz to 3 kHz. Pretreatment ABR recordings of adult FVB mice (aged 6 weeks) were acquired 1 week before all treatments, and posttreatment ABR measurements were recorded 21 days after cisplatin treatment or 14 days after noise exposure. ABR threshold was determined by the presence of any of three or more of the five waveform peaks. […] All thresholds and shifts were determined independently by two experimenters for each mouse. Individual ABR wave 1 amplitudes were measured as the difference between the positive peak and the following negative trough.
Cochleae from adult mice were prepared and examined as described previously ([85], [86]). All images were acquired with a confocal microscope (LSM 700 or 710, Zeiss). Samples were stained with phalloidin (A12379 or A12380, Invitrogen) or with antibodies for other markers. The following primary antibodies were used: anti–myosin VI (1:400; 25-6791; Proteus Bioscience), anti–myosin VIIa ([…];138-1-s, Developmental Studies Hybridoma Bank), anti-Tuj1 (1:250; 801201, BioLegend), anti-pERK (1:400; 9101S, Cell Signaling Technology), or anti-Ctbp2 (1:500; 612044, BD Transduction). Anti-rabbit Alexa Fluor 488 (1:400; A11034) and anti-mouse Alexa Fluor 647 (1:400; A31571) secondary antibodies were purchased from Invitrogen. ProLong gold antifade reagent with 4′,6-diamidino-2-phenylindole (P36941, Invitrogen) was used to counterstain nuclei.

[3] = test system: Tg(brn3c:GFP) zebrafish larvae neuromast HCs; assay: Zebrafish lateral line neuromast hair cell loss after cisplatin; format: in vivo; conditions: 1 hour pretreatment, 6 hours 400 μM cisplatin; dabrafenib 100 nM
Description: Lateral line neuromasts of zebrafish are a well-established model for the study of drug protection from cisplatin or aminoglycoside toxicity because their HCs are considered homologous to mammalian HCs and readily accessible to compounds in vivo ([47]–[49]). As in our previous studies, MI1 (medial neuromast 1) and O1-2 (otic line) neuromasts were examined in Tg(brn3c:GFP) zebrafish larvae 5 days after fertilization ([50], [51]). […] Green fluorescent protein (GFP) (brn3c) and otoferlin staining were used to identify neuromast HCs. In fig.
Zebrafish (D. rerio) experimental larvae of either sex were obtained by pair mating of adult fish maintained at Boys Town National Research Hospital. We used zebrafish line Tg(brn3c:GFP) that expresses a membrane-bound GFP in HCs. Fish were maintained at 28.5°C in E3 media [5 mM NaCl, 0.17 mM KCl, 0.33 mM CaCl2, and 0.33 MgSO4 (pH 7.2)] at a density of 50 embryos/larvae per […] petri dish. Experimental animals were used at 5 days post-fertilization and cryo-anesthetized after treatment and before fixation. Average HC counts in our studies were obtained from the following three neuromasts: MI1 (medial neuromast 1) and O1 and O2 (otic line).

[4] = test system: human neuroblastoma and lung carcinoma cell lines; assay: Tumor Cell Titer-Glo viability assay, interference with cisplatin tumor killing (six cell lines); format: cell-based; conditions: compound at 3× protective IC50 (dabrafenib 35 μM, AZD5438 […]) + 15 μM cisplatin (200 μM for A549), 48 hours
Description: as §1, §2

[5] = test system: P42 FVB mice; assay: Noise-induced hearing loss in adult mice (ABR, DPOAE, Ctbp2 puncta, pERK); format: in vivo, mouse
Description: Noise injury cannot always be predicted, and pretreatment is often not an option.
as §3, §4
Mice were placed in individual cages in a custom-made acrylic chamber. The sound stimulus was produced by System RZ6 (TDT) equipment and amplified using a 75-A power amplifier (Crown). Sound was delivered to the acrylic chamber via a speaker horn (JBL). The SPL was calibrated with a 1/4-inch free-field microphone (PCB). Before experimental noise exposure, four quadrants of the cage inside the chamber were sampled with the 1/4-inch microphone to ensure that the SPL varied by <0.5 dB across the measured positions. Adult mice were then exposed to 2 hours of octave band noise (8 to 16 kHz) at 100 dB.
Organs of Corti were costained with anti-Ctbp2 and anti–myosin VI antibodies. Confocal imaging was performed using a Zeiss 700 scanning confocal microscope with a 63× objective. Visualization and projections were performed using ZEN 2009 or ZEN 2012 software (Zeiss). Ctbp2 puncta were visualized and counted on the reconstructed three-dimensional images by using the ZEN 2009 or ZEN 2012 three-dimensional construct function as previously reported ([54]). […] Images were acquired around 16-kHz cochlear regions, and each image included 12 to 18 IHCs that were quantified as total number of Ctbp2 puncta divided by total number of IHCs per image.

Compound: Cc1ncc(-c2ccnc(Nc3ccc(S(C)(=O)=O)cc3)n2)n1C(C)C [AZD5438]
- interference with cisplatin killing ability [1]: interfered with cisplatin killing ability
- protection against cisplatin-induced hearing loss, pretreatment [2]: protected
- protection from cisplatin-induced neuromast HC loss [3]: confer protection
- effect on cisplatin-induced tumor cell death [4]: did not interfere with or enhanced
- reduction of ABR threshold shifts, treatment after noise ([5]; 35 mg/kg twice daily oral gavage, post-noise): did not significantly reduce
- protection against noise-induced hearing loss, pretreatment ([5]; 75 mg/kg oral gavage pretreatment): protected
